The source of these data is publication PMC3891991, “Synthesis and molecular modeling of six novel monastrol analogues: evaluation of cytotoxicity and kinesin inhibitory activity against HeLa cell line” (DARU Journal of Pharmaceutical Sciences, 2013).

SMILES strings stand for the structures. In brackets after ≈: the same amount, converted by molar mass.

The target in data set [1] is T1, kinesin heavy chain Motor (Homo sapiens, UniProt P33176).
T1 construct: kinesin heavy chain Motor (Cytoskeleton, Cat # KR01-A); purchased Cytoskeleton KR01-A
T1 sequence (P33176 8-325 limits assumed): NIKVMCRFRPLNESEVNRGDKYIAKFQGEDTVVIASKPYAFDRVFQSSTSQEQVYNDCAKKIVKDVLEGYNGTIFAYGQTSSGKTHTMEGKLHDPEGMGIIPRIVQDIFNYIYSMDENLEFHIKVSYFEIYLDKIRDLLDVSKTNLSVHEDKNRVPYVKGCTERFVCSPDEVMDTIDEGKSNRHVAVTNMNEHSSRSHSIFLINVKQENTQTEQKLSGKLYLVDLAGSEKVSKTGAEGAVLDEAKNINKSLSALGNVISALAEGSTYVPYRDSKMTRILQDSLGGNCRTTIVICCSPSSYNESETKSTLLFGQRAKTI
Briefly: Kinesin ATPase activity assay (ELIPA kit, inorganic phosphate). The format is biochemical. The following applies: ATPase activity of kinesin, n = 2, read-out: IC 50 (μg/ml) for Kinesin inhibition (converted).

A further data set concerns HeLa cell line. Put plainly: MTT cytotoxicity assay on HeLa cells. Particulars: Homo sapiens, 24 h, read-out: IC 50 (μg/ml) ± SD on HeLa cell line. On the technique in general: Formazan colour is commonly taken as a measure of viable cells.

Experimental for HeLa cell line: HeLa cell line was obtained from National Cell Bank of Iran, Pasteur Institute of Iran.
Cytotoxic effects of synthesized compounds were determined using the MTT [3-(4,5-dimethylthiazol-2-yl)-2,5-diphenyltetrazolium bromide] assay [18-20]. Briefly, 5000 HeLa cells/well were seeded in a 96-well plate and cultured overnight. Different concentrations of synthesized compounds were added to each well. […] Then, the medium was removed, and the purple formazan crystals were dissolved in 150 μl dimethylsulfoxide (Merck, Germany). Absorbance was measured at 545 nm (630 nm as a reference) in Synergy H4 Hybrid Multi-Mode Microplate Reader (Biotek, Model: H4MLFPTAD). IC50 was calculated using CalcuSyn (BioSoft).
HeLa cells were incubated with different concentrations of newly synthesized compounds for 24 h and cytotoxicities were evaluated using MTT assay.

Regarding `CSc1ncc(C2NC(=O)NC3=C2C(=O)CC(C)(C)C3)n1Cc1ccccc1` (stereo not drawn) [Compound 4a, 4-[1-benzyl-2-(methylthio)-1H-imidazol-5-yl)-3,4,7,8-tetrahydro-7,7 dimethyl-quinazoline-2,5-(1H,6H)-diones], the melting point came to 169 °C. For the same compound, the IC50 in data set [1] was 182 µM. The IC50 with HeLa cell line came to 210 ± 21 µg/mL (≈ 530 µM).
On the same counts, the results for `CSc1ncc(C2NC(=S)NC3=C2C(=O)CC(C)(C)C3)n1Cc1ccccc1` (stereo not drawn) [Compound 4b, 4-[1-benzyl-2-(methylthio)-1H-imidazol-5-yl)-1,2,3,4,7,8-hexahydro-7,7 dimethyl-2-thio oxoquinazoline-5-(6H)-one] are 157 °C, 187 µM and 301 ± 22 µg/mL (≈ 730 µM).
On the same counts, the results for `CSc1ncc(C2NC(=O)NC3=C2C(=O)CC(C)(C)C3)n1Cc1ccccc1Cl` (stereo not drawn) [Compound 4c, 4-[1-(2-chlorobenzyl)-2-(methylthio)-1H-imidazol-5-yl]-3,4,7,8-tetrahydro-7,7 dimethyl quinazoline-2,5-(1H,6H)-diones] are 149 °C, 183 µM and 98 ± 19 µg/mL (≈ 227 µM).
As to `CSc1ncc(C2NC(=S)NC3=C2C(=O)CC(C)(C)C3)n1Cc1ccccc1Cl` (stereo not drawn) [Compound 4d, 4-[1-(2-chlorobenyl)-2-methylthio-1H-imidazol-5-yl]-1,2,3,4,7,8-hexahydro-7,7 dimethyl-2-thio oxoquinazoline-5-(6H)-one], the melting point is 142 °C.
`CSc1ncc(C2NC(=O)NC3=C2C(=O)CC(C)(C)C3)n1Cc1ccc(F)cc1` (stereo not drawn) [Compound 4e, 4-[1-(4-fluorobenzyl)-2-(methylthio)-1H-imidazol-5-yl]-3,4,7,8 – tetrahydro-7,7 dimethyl quinazoline-2,5-(1H,6H)-diones] yielded a melting point of 82 °C. The IC50 in data set [1] was 232 µM. Further, in the data set on HeLa cell line, the IC50 amounted to 110 ± 28 µg/mL (≈ 265 µM).
On the same counts, the results for `CSc1ncc(C2NC(=S)NC3=C2C(=O)CC(C)(C)C3)n1Cc1ccc(F)cc1` (stereo not drawn) [Compound 4f, 4-[1-(4-fluorobenzyl)-2-methylthio-1H-imidazol-5-yl]-1,2,3,4,7,8-hexahydro-7,7-dimethyl-2-thiooxoquinazoline-5-(6H)-one] are 149 °C, 460 µM and 339 ± 23 µg/mL (≈ 787 µM).
As for `CC(=O)O[C@H]1C(=O)[C@@]2(C)[C@H]([C@H](OC(=O)c3ccccc3)[C@]3(O)C[C@H](OC(=O)[C@H](O)[C@@H](NC(=O)c4ccccc4)c4ccccc4)C(C)=C1C3(C)C)[C@]1(OC(C)=O)CO[C@@H]1C[C@@H]2O` [Taxol, reference compound], the IC50 in data set [1] was 8.2 µM.
For `CC1(C)CC(=O)C2=C(C1)NC(=S)NC2c1cccc(O)c1` (stereo not drawn) [dimethylenastrone, dimethylenastron, reference compound], in the data set with HeLa cell line, the IC50 is 338 ± 26 µg/mL (≈ 1120 µM).

What is called melting point is the temperature of the solid-liquid transition.
